Earlier results on two compounds are cited in publication PMC2711878 (ACS chemical biology, 2009).

Structures are written as SMILES.

Series [1] deals with monofunctional P. falciparum WT DHFR.
The target in series [2] is P. falciparum double mutant C59R/S108N DHFR.
Series [3] addresses P. falciparum N51I/C59R/S108N/I164L DHFR.
The conditions of series [4]: in vivo.

The term Ki denotes the equilibrium dissociation constant of an inhibitor or competing ligand from its target. Take `CCc1nc(N)nc(N)c1-c1ccc(Cl)cc1` [pyrimethamine]: in series [1] (read-out: Ki, WT DHFR, monofunctional enzyme), the Ki is 1.5 nM. Also, the “Ki, fold less inhibitory than WT, double mutant” value in series [2] (C59R/S108N, monofunctional enzyme) is on record as 50 fold. Besides, the “Ki, fold less inhibitory than WT, quadruple mutant” value in series [3] (N51I/C59R/S108N/I164L, monofunctional enzyme) is on record as greater than 500 fold.

Turning to `CC1(C)N=C(N)N=C(N)N1OCCCOc1cc(Cl)c(Cl)cc1Cl` [WR99210], in series [1], the “Ki value, WT DHFR” value is recorded as “sub-nanomolar”. Besides, the “Ki value, double mutant DHFR” value in series [2] is listed as “sub-nanomolar”. The “Ki value, quadruple mutant DHFR” value in series [3] was “sub-nanomolar”. Further, the oral bioavailability result in series [4] is “poor”.
